In ChEMBL document CHEMBL1909294, “Translating clinical findings into knowledge in drug safety evaluation--drug induced liver injury prediction system (DILIps)” (PLoS Comput Biol, 2011):

What was measured:
Hepatotoxicity [1] = tested on: Hepatotoxicity;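 for HepSE Combined Scores: combined hepatic side effect score as listed in the training data of the Drug Induced Liver Injury Prediction System (DILIps)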;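 for HepSE cholecystitis: Cholecystitis-related hepatic side effect score drawn from the DILIps (drug-induced liver injury prediction) training data set; call rule not given here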;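 for HepSE cholelithiasis: hepatic side effect score for cholelithiasis, drawn from the DILIps training data for predicting drug-induced liver injury; call rule not given here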;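 for HepSE cirrhosis: cirrhosis hepatic side effect score taken from the DILIps (drug-induced liver injury prediction) training set; call rule not given here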;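 for HepSE elevated liver function tests: hepatic side effect score for raised liver function tests, as recorded in the DILIps training set used for predicting drug-induced liver injury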; for HepSE hepatic failure: call rule not given here;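 for HepSE jaundice: Jaundice-related hepatic side-effect score drawn from the training data of the DILIps (drug-induced liver injury prediction system); call rule not given here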
Hepatotoxicity [2] = tested on: Hepatotoxicity; remark: listed apart in the source;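 for HepSE Combined Scores: combined hepatic side effect score as listed in the training data of the Drug Induced Liver Injury Prediction System (DILIps)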;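 for HepSE cholecystitis: Cholecystitis-related hepatic side effect score drawn from the DILIps (drug-induced liver injury prediction) training data set; call rule not given here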;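 for HepSE cholelithiasis: hepatic side effect score for cholelithiasis, drawn from the DILIps training data for predicting drug-induced liver injury; call rule not given here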;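 for HepSE cirrhosis: cirrhosis hepatic side effect score taken from the DILIps (drug-induced liver injury prediction) training set; call rule not given here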;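 for HepSE elevated liver function tests: hepatic side effect score for raised liver function tests, as recorded in the DILIps training set used for predicting drug-induced liver injury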; for HepSE hepatic failure: call rule not given here;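 for HepSE jaundice: Jaundice-related hepatic side-effect score drawn from the training data of the DILIps (drug-induced liver injury prediction system); call rule not given here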
Hepatotoxicity [3] = tested on: Hepatotoxicity; remark: listed apart in the source;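 for HepSE cholecystitis: Cholecystitis-related hepatic side effect score drawn from the DILIps (drug-induced liver injury prediction) training data set; call rule not given here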;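 for HepSE cholelithiasis: hepatic side effect score for cholelithiasis, drawn from the DILIps training data for predicting drug-induced liver injury; call rule not given here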;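 for HepSE cirrhosis: cirrhosis hepatic side effect score taken from the DILIps (drug-induced liver injury prediction) training set; call rule not given here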;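 for HepSE elevated liver function tests: hepatic side effect score for raised liver function tests, as recorded in the DILIps training set used for predicting drug-induced liver injury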; for HepSE hepatic failure: call rule not given here;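 for HepSE jaundice: Jaundice-related hepatic side-effect score drawn from the training data of the DILIps (drug-induced liver injury prediction system); call rule not given here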
Hepatotoxicity [4] = tested on: Hepatotoxicity; remark: listed apart in the source;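 for HepSE cholecystitis: Cholecystitis-related hepatic side effect score drawn from the DILIps (drug-induced liver injury prediction) training data set; call rule not given here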;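 for HepSE cholelithiasis: hepatic side effect score for cholelithiasis, drawn from the DILIps training data for predicting drug-induced liver injury; call rule not given here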;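 for HepSE cirrhosis: cirrhosis hepatic side effect score taken from the DILIps (drug-induced liver injury prediction) training set; call rule not given here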;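 for HepSE elevated liver function tests: hepatic side effect score for raised liver function tests, as recorded in the DILIps training set used for predicting drug-induced liver injury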; for HepSE hepatic failure: call rule not given here;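 for HepSE jaundice: Jaundice-related hepatic side-effect score drawn from the training data of the DILIps (drug-induced liver injury prediction system); call rule not given here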
Hepatotoxicity [5] = tested on: Hepatotoxicity; remark: listed apart in the source; for HepSE hepatic failure: call rule not given here
Hepatotoxicity [6] = tested on: Hepatotoxicity; remark: listed apart in the source; for HepSE hepatic failure: call rule not given here
Hepatotoxicity [7] = tested on: Hepatotoxicity; remark: listed apart in the source
Hepatotoxicity [8] = tested on: Hepatotoxicity; remark: listed apart in the source
Hepatotoxicity [9] = tested on: Hepatotoxicity; remark: listed apart in the source
Hepatotoxicity [10] = tested on: Hepatotoxicity; remark: listed apart in the source
Hepatotoxicity [11] = tested on: Hepatotoxicity; remark: listed apart in the source
Hepatotoxicity [12] = tested on: Hepatotoxicity; remark: listed apart in the source
Hepatotoxicity [13] = tested on: Hepatotoxicity; remark: listed apart in the source
Hepatotoxicity [14] = tested on: Hepatotoxicity; remark: listed apart in the source

SMILES	HepSE_elevated liver function tests (Hepatotoxicity [1])	HepSE_cholelithiasis (Hepatotoxicity [2])	HepSE_hepatic failure (Hepatotoxicity [3])	HepSE_cirrhosis (Hepatotoxicity [4])	HepSE_cholecystitis (Hepatotoxicity [5])	HepSE_jaundice (Hepatotoxicity [6])	HepSE_Combined Scores (Hepatotoxicity [7])	HepSE_hepatitis (Hepatotoxicity [8])	HepSE_bilirubinemia (Hepatotoxicity [9])	HepSE_hepatomegaly (Hepatotoxicity [10])	HepSE_liver function tests abnormal (Hepatotoxicity [11])	HepSE_hepatic necrosis (Hepatotoxicity [12])	HepSE_liver fatty (Hepatotoxicity [13])	HepSE_liver disease (Hepatotoxicity [14])	further results
FC(F)OC(F)C(F)(F)F (configuration not stated)	0	0	1	0	0	0	2	1	0	0	0	0	0	0	
CC(CCc1ccccc1)NCC(O)c1ccc(O)c(C(N)=O)c1 (configuration not stated) [LABETALOL]	1	0	0	0	0	1	4	1	0	0	0	1	0	0	
CCOC(=O)[C@H](CCc1ccccc1)N[C@@H](C)C(=O)N1CCC[C@H]1C(=O)O	0	0	1	0	0	1	3	1	0	0	0	0	0	0	
CN(C)[C@@H]1C(O)=C(C(N)=O)C(=O)[C@@]2(O)C(O)=C3C(=O)c4c(O)ccc(Cl)c4[C@@H](O)[C@H]3C[C@@H]12 [DEMECLOCYCLINE]	0	0	1	0	0	0	2	1	0	0	0	0	0	0	
CC(=O)N[C@@H](CS)C(=O)O [ACETYLCYSTEINE]	0	0	0	0	0	0	0	0	0	0	0	0	0	0	
COc1cc2nc(N(C)CCCNC(=O)C3CCCO3)nc(N)c2cc1OC (configuration not stated) [ALFUZOSIN]	0	0	0	0	0	1	2	0	0	0	0	0	0	1	
C=C1CC[C@H](O)C/C1=C/C=C1\CCC[C@]2(C)[C@@H]([C@H](C)CCCC(C)C)CC[C@@H]12 [CHOLECALCIFEROL]	0	0	0	0	0	0	0	0	0	0	0	0	0	0	
COc1c(N2CCNC(C)C2)c(F)cc2c(=O)c(C(=O)O)cn(C3CC3)c12 (configuration not stated) [GATIFLOXACIN]	0	0	0	0	0	0	1	1	0	0	0	0	0	0	
CC(=O)OCC(=O)[C@@]12OC(C)(C)O[C@@H]1C[C@H]1[C@@H]3C[C@H](F)C4=CC(=O)C=C[C@]4(C)[C@@]3(F)[C@@H](O)C[C@@]12C [FLUOCINONIDE]	0	0	0	0	0	0	0	0	0	0	0	0	0	0	
O=C1CN(/N=C/c2ccc(-c3ccc([N+](=O)[O-])cc3)o2)C(O)=N1 [DANTROLENE]	0	0	1	0	0	0	2	1	0	0	0	0	0	0	
COC(=O)Nc1nc2ccc(C(=O)c3ccccc3)cc2[nH]1 [MEBENDAZOLE]	0	0	0	0	0	0	1	1	0	0	0	0	0	0	
COc1cc(Cc2cnc(N)nc2N)cc(OC)c1OC [TRIMETHOPRIM]															HepSE_elevated liver function tests (Hepatotoxicity [1]; Liver): 0; HepSE_cholelithiasis (Hepatotoxicity [2]; Liver): 0; HepSE_hepatic failure (Hepatotoxicity [3]; Liver): 0; HepSE_cirrhosis (Hepatotoxicity [4]; Liver): 0; HepSE_cholecystitis (Hepatotoxicity [5]; Liver): 0; HepSE_jaundice (Hepatotoxicity [6]; Liver): 1; HepSE_Combined Scores (Hepatotoxicity [7]; Liver): 1; HepSE_hepatitis (Hepatotoxicity [8]; Liver): 0; HepSE_bilirubinemia (Hepatotoxicity [9]; Liver): 0; HepSE_hepatomegaly (Hepatotoxicity [10]; Liver): 0; HepSE_liver function tests abnormal (Hepatotoxicity [11]; Liver): 0; HepSE_hepatic necrosis (Hepatotoxicity [12]; Liver): 0; HepSE_liver fatty (Hepatotoxicity [13]; Liver): 0; HepSE_liver disease (Hepatotoxicity [14]; Liver): 0
NC(=O)CC[C@@H]1NC(=O)[C@H](Cc2ccccc2)NC(=O)[C@H](Cc2ccc(O)cc2)NC(=O)CCSSC[C@@H](C(=O)N2CCC[C@H]2C(=O)N[C@H](CCCN=C(N)N)C(=O)NCC(N)=O)NC(=O)[C@H](CC(N)=O)NC1=O [DESMOPRESSIN]	0	0	0	0	0	0	0	0	0	0	0	0	0	0	
